Reference: US10519152B2, “Compounds and their use in treating cancer” (AstraZeneca AB, priority 2017, dated 2019)

Legend:
[1] = target: T1, Estrogen Receptor (ERα) in MCF-7 human ductal carcinoma breast cell line (Homo sapiens, UniProt P03372); experiment: MCF-7 ER degradation assay (cell based immuno-fluorescence); settings: MCF-7 cells, 18-22 hours incubation, 50% reduction of ERα expression; single experiment or average of two or more; read-out: MCF-7 ER degradation IC50
T1 construct: endogenous in cells; host or cells: MCF-7
T1 sequence (P03372 1-595): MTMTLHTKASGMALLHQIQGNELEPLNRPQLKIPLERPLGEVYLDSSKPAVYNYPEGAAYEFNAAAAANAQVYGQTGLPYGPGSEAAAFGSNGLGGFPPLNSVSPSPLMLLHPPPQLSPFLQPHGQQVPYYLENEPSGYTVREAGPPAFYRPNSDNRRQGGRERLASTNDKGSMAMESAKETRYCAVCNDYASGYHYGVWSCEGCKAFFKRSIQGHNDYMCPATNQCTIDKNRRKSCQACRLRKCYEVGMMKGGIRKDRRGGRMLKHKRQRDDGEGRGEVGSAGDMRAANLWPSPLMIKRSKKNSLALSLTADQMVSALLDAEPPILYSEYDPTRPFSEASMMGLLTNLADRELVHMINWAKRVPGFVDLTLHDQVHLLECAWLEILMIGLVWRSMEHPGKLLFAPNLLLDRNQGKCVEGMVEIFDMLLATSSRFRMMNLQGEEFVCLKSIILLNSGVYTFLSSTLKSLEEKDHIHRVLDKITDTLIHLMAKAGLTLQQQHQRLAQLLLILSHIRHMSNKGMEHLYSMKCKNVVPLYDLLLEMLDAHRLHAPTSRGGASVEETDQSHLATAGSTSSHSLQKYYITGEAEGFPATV
Procedure, shortened: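 MCF-7 human ductal carcinoma breast cells were seeded at 3.75×10^4 cells per mL (40 μL per well) in 384 well plates with phenol red free DMEM containing 2 mM L-Glutamine and 5% (v/v) Charcoal/Dextran treated foetal calf serum. After overnight culture, compounds were acoustically dispensed, incubated 18-22 hours, then cells were formaldehyde-fixed and immunostained for ERα.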

[2] = target: T2, recombinant human Estrogen Receptor alpha ligand binding domain, residues 307-554 (ER alpha-LBD (GST)) (Homo sapiens, UniProt P03372); experiment: ERα binding assay (LanthaScreen TR-FRET competition); settings: TR-FRET competition with Fluormone ES2 tracer, 4 hours at room temperature; single experiment or average of two or more
T2 construct: made in house
T2 sequence (P03372 307-554): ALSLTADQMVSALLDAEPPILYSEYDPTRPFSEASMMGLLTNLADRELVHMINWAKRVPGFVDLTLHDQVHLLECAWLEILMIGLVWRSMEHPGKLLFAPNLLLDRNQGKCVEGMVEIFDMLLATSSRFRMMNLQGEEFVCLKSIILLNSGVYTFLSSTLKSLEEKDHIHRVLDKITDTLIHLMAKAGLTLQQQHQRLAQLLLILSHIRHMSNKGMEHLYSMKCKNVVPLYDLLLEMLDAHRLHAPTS

SMILES: Cc1ncsc1-c1ccc(CNC(=O)[C@@H]2C[C@@H](O)CN2C(=O)[C@@H](NC(=O)CCCCN2CCN(CCOc3cc(F)c([C@@H]4c5[nH]c6ccccc6c5C[C@@H](C)N4CC(C)(C)F)c(F)c3)CC2)C(C)(C)C)cc1 [Example 102, (2S,4R)-1-((S)-2-(5-(4-(2-(3,5-difluoro-4-((1R,3R)-2-(2-fluoro-2-methylpropyl)-3-methyl-2,3,4,9-tetrahydro-1H-pyrido[3,4-b]indol-1-yl)phenoxy)ethyl)piperazin-1-yl)pentanamido)-3,3-dimethylbutanoyl)-4-hydroxy-N-(4-(4-methylthiazol-5-yl)benzyl)pyrrolidine-2-carboxamide]
- DC50 [1]: 0.9 nM
- IC50 [2]: 0.6 nM

SMILES: Cc1ncsc1-c1ccc(CNC(=O)[C@@H]2C[C@@H](O)CN2C(=O)[C@@H](NC(=O)COC2CCN(CCCNC(=O)/C=C/c3cc(F)c([C@@H]4c5[nH]c6ccccc6c5C[C@@H](C)N4CC(C)(C)F)c(F)c3)CC2)C(C)(C)C)cc1 [Example 65, (2S,4R)-1-((S)-2-(2-((1-(3-((E)-3-(3,5-difluoro-4-((1R,3R)-2-(2-fluoro-2-methylpropyl)-3-methyl-2,3,4,9-tetrahydro-1H-pyrido[3,4-b]indol-1-yl)phenyl)acrylamido)propyl)piperidin-4-yl)oxy)acetamido)-3,3-dimethylbutanoyl)-4-hydroxy-N-(4-(4-methylthiazol-5-yl)benzyl)pyrrolidine-2-carboxamide, Trifluoroacetic Acid]
- DC50 [1]: 4.5 nM
- IC50 [2]: 1.1 nM

SMILES: Cc1ncsc1-c1ccc(CNC(=O)[C@@H]2C[C@@H](O)CN2C(=O)[C@@H](NC(=O)CN2CC3(CCN(CCOc4cc(F)c([C@@H]5c6[nH]c7ccccc7c6C[C@@H](C)N5CC(C)(C)F)c(F)c4)CC3)C2)C(C)(C)C)cc1 [Example 42, (2S,4R)-1-((S)-2-(2-(7-(2-(3,5-difluoro-4-((1R,3R)-2-(2-fluoro-2-methylpropyl)-3-methyl-2,3,4,9-tetrahydro-1H-pyrido[3,4-b]indol-1-yl)phenoxy)ethyl)-2,7-diazaspiro[3.5]nonan-2-yl)acetamido)-3,3-dimethylbutanoyl)-4-hydroxy-N-(4-(4-methylthiazol-5-yl)benzyl)pyrrolidine-2-carboxamide]
- DC50 [1]: 1.9 nM
- IC50 [2]: 1.3 nM

SMILES: Cc1ncsc1-c1ccc(CNC(=O)[C@@H]2C[C@@H](O)CN2C(=O)[C@@H](N(C)C(=O)COCCOCCOCCOc2cc(F)c([C@@H]3c4[nH]c5ccccc5c4C[C@@H](C)N3CC(C)(C)F)c(F)c2)C(C)(C)C)cc1 [Example 31, (2S,4R)-1-((S)-2-(tert-Butyl)-14-(3,5-difluoro-4-((1R,3R)-2-(2-fluoro-2-methylpropyl)-3-methyl-2,3,4,9-tetrahydro-1H-pyrido[3,4-b]indol-1-yl)phenoxy)-3-methyl-4-oxo-6,9,12-trioxa-3-azatetradecanoyl)-4-hydroxy-N-(4-(4-methylthiazol-5-yl)benzyl)pyrrolidine-2-carboxamide]
- DC50 [1]: 0.3 nM
- IC50 [2]: 0.6 nM
